Test results published in patent publication US20050256309A1, “Tri-and bi-cyclic heteroaryl histamine-3 receptor ligands” (priority 2004, published 2005).
Where a name gives a salt, the structure may show the parent alone.

- melting point: 182 to 183 °C
Structure (SMILES): Cc1nc2cc(-c3ccc4nc(CCN5CCC[C@H]5C)ccc4c3)ccc2s1 (as salt: hydrochloride) [Example 14, 6-(2-Methyl-benzothiazol-5-yl)-2-[2-(2R-methyl-pyrrolidin-1-yl)-ethyl]-quinoline]
